Source: US20230192705A1, “SHP2 INHIBITORS, COMPOSITIONS AND USES THEREOF” (Betta Pharmaceuticals Co., Ltd, priority 2020, published 2023)
pIC50: −log10 of the molar value.

Molecular target: T1, SHP2 (Homo sapiens, UniProt Q06124)
T1 sequence (Q06124 1-593): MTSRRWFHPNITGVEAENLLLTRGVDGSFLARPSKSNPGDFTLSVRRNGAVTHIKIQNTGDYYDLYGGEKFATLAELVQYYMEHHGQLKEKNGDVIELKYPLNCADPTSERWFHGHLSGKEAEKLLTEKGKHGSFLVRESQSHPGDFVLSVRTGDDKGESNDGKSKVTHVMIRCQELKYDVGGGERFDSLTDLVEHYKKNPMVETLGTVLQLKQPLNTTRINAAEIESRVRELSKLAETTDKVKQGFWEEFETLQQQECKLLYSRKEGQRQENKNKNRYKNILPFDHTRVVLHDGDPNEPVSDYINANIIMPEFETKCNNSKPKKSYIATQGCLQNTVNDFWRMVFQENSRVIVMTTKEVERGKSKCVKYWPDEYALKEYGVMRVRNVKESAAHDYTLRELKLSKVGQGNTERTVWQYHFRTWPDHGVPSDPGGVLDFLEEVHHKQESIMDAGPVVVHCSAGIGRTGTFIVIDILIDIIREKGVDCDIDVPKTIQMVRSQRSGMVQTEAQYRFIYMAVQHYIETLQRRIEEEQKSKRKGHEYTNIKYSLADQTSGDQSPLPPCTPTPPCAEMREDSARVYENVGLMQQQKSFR
Test: SHP2 allosteric inhibitor enzyme activity assay (DiFMUP fluorescence)
Format: biochemical
In short: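 SHP2 activated by 0.5 μM IRS1_pY1172(dPEG8)pY1222 peptide, 0.2 ng enzyme per well, 1 h at room temperature with compound (1 μM top, 3-fold series), then DiFMUP substrate 1 h. Buffer: 60 mM HEPES, 75 mM NaCl, 75 mM KCl, 0.05% BRIJ-35, 1 mM EDTA, 5 mM DTT. Fluorescence ex 340/em 450 nm; IC50 by variable-slope fit.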

SMILES	pIC50 (class symbols)	pIC50 (numeric values)
N[C@@H]1c2ccccc2CC12CCN(c1nc3[nH]nc(C4CCCCc5ccccc54)c3c(=O)[nH]1)CC2 (stereo partly drawn) [Example 110, 6-((S)-1-amino-1,3-dihydrospiro[indene-2,4′-piperidin]-1′-yl)-3-(6,7,8,9-tetrahydro-5H-benzo[7]annulen-5-yl)-1,5-dihydro-4H-pyrazolo[3,4-d]pyrimidin-4-one]	≥ 7.70	
C[C@@H]1OCC2(CCN(c3nc4[nH]nc(C5(c6cc7ccccc7[nH]6)CC5)c4c(=O)[nH]3)CC2)[C@@H]1N [Example 285, 3-(1-(1H-indol-2-yl)cyclopropyl)-6-((3S,4S)-4-amino-3-methyl-2-oxa-8-azaspiro[4.5]decan-8-yl)-1,5-dihydro-4H-pyrazolo[3,4-d]pyrimidin-4-one]	< 7.22	
N[C@@H]1c2ccccc2CC12CCN(c1nc3[nH]nc(C4=CCCc5occc54)c3c(=O)[nH]1)CC2 [Example 119, (S)-6-(1-amino-1,3-dihydrospiro[indene-2,4′-piperidin]-1′-yl)-3-(6,7-dihydrobenzofuran-4-yl)-1,5-dihydro-4H-pyrazolo[3,4-d]pyrimidin-4-one]	≥ 7.70	
N[C@@H]1c2ccccc2CC12CCN(c1nc3[nH]nc(C4(c5cccc(O)c5Cl)CC4)c3c(=O)[nH]1)CC2 [Example 50, (S)-6-(1-amino-1,3-dihydrospiro[indene-2,4′-piperidin]-1′-yl)-3-(1-(2-chloro-3-hydroxyphenyl)cyclopropyl)-1,5-dihydro-4H-pyrazolo[3,4-d]pyrimidin-4-one]	≥ 7.70	
N[C@@H]1c2ccccc2CC12CCN(c1nc3[nH]nc(C4=CSCc5ccccc54)c3c(=O)[nH]1)CC2 [Example 134, (S)-6-(1-amino-1,3-dihydrospiro[indene-2,4′-piperidin]-1′-yl)-3-(1H-isothiochromen-4-yl)-1,5-dihydro-4H-pyrazolo[3,4-d]pyrimidin-4-one]		8.77
N[C@@H]1c2ccccc2CC12CCN(c1nc3[nH]nc(C4=CCC5(CC5)c5ccccc54)c3c(=O)[nH]1)CC2 [Example 132, (S)-6-(1-amino-1,3-dihydrospiro[indene-2,4′-piperidin]-1′-yl)-3-(2′H-spiro[cyclopropane-1,1′-naphthalen]-4′-yl)-1,5-dihydro-4H-pyrazolo[3,4-d]pyrimidin-4-one]	≥ 7.70	
Cn1c2c(c3ccccc31)C(c1n[nH]c3nc(N4CCC5(CC4)Cc4ccccc4[C@H]5N)[nH]c(=O)c13)=CCC2 [Example 113, (S)-6-(1-amino-1,3-dihydrospiro[indene-2,4′-piperidin]-1′-yl)-3-(9-methyl-2,9-dihydro-1H-carbazol-4-yl)-1,5-dihydro-4H-pyrazolo[3,4-d]pyrimidin-4-one]	≥ 7.70	
N[C@@H]1c2ccccc2CC12CCN(c1nc3[nH]nc(C4(c5nc6ccccc6[nH]5)CC4)c3c(=O)[nH]1)CC2 [Example 251, (S)-3-(1-(1H-benzo[d]imidazol-2-yl)cyclopropyl)-6-(1-amino-1,3-dihydrospiro[indene-2,4′-piperidin]-1′-yl)-1,5-dihydro-4H-pyrazolo[3,4-d]pyrimidin-4-one]	7.22 to 7.70	
N[C@@H]1c2ccccc2CC12CCN(c1nc3[nH]nc(C4=CCS(=O)(=O)c5ccccc54)c3c(=O)[nH]1)CC2 [Example 180, (S)-6-(1-amino-1,3-dihydrospiro[indene-2,4′-piperidin]-1′-yl)-3-(1,1-dioxido-2H-thiochromen-4-yl)-1,5-dihydro-4H-pyrazolo[3,4-d]pyrimidin-4-one]	≥ 7.70	
Cc1ncc2c(n1)CC(C)(C)C=C2c1n[nH]c2nc(N3CCC4(CC3)Cc3ccccc3[C@H]4N)[nH]c(=O)c12 [Example 147, (S)-6-(l-amino-1,3-dihydrospiro[indene-2,4'-piperidin]-1′-yl)-3-(2,7,7-trimethyl-7,8-dihydroquinazolin-5-yl)-1,5-dihydro-4H-pyrazolo[3,4-d]pyrimidin-4-one]	≥ 7.70	
C[C@@H]1OCC2(CCN(c3nc4[nH]nc(C5(c6cccc(C#N)c6)CC5)c4c(=O)[nH]3)CC2)[C@@H]1N [Example 290, 3-(1-(6-((3S,4S)-4-amino-3-methyl-2-oxa-8-azaspiro[4.5]decan-8-yl)-4-oxo-4,5-dihydro-1H-pyrazolo[3,4-d]pyrimidin-3-yl)cyclopropyl)benzonitrile]	7.22 to 7.70	
N[C@@H]1c2ccccc2CC12CCN(c1nc3[nH]nc(C4(c5nccs5)CC4)c3c(=O)[nH]1)CC2 [Example 84, (S)-6-(1-amino-1,3-dihydrospiro[indene-2,4′-piperidin]-1′-yl)-3-(1-(thiazol-2-yl)cyclopropyl)-1,5-dihydro-4H-pyrazolo[3,4-d]pyrimidin-4-one]	≥ 7.70	

Continued, values first:

pIC50 (class symbols)	pIC50 (numeric values)	SMILES
7.22 to 7.70		CC1(C)C=C(c2n[nH]c3nc(N4CCC5(CC4)Cc4ccccc4[C@H]5N)[nH]c(=O)c23)c2cnc(C3CC3)nc2C1 [Example 148, (S)-6-(l-amino-1,3-dihydrospiro[indene-2,4'-piperidin]-1′-yl)-3-(2-cyclopropyl-7,7-dimethyl-7,8-dihydroquinazolin-5-yl)-1,5-dihydro-4H-pyrazolo[3,4-d]pyrimidin-4-one]
≥ 7.70		N[C@@H]1c2ccccc2CC12CCN(c1cnc3c(C4(c5ccccc5)CC4)n[nH]c3n1)CC2 [Example 2, (S)-1′-(3-(1-phenylcyclopropyl)-1H-pyrazolo[3,4-b]pyrazin-6-yl)-1,3-dihydrospiro[indene-2,4′-piperidin]-1-amine]
< 7.22		C[C@@H]1OCC2(CCN(C3=NC(N)=C(C4(c5ccccc5)CC4)C4=NCCCN43)CC2)[C@@H]1N [Example 265, (3S,4S)-8-(8-amino-9-(1-phenylcyclopropyl)-3,4-dihydro-2H-pyrimido[1,6-a]pyrimidin-6-yl)-3-methyl-2-oxa-8-azaspiro[4.5]decan-4-amine]
≥ 7.70		N[C@@H]1c2ccccc2CC12CCN(c1nc3[nH]nc(C4(c5cnnc(Cl)c5)CC4)c3c(=O)[nH]1)CC2 [Example 70, (S)-6-(1-amino-1,3-dihydrospiro[indene-2,4′-piperidin]-1′-yl)-3-(1-(6-chloropyridazin-4-yl)cyclopropyl)-1,5-dihydro-4H-pyrazolo[3,4-d]pyrimidin-4-one]
7.22 to 7.70		C[C@@H]1OCC2(CCN(c3nc4[nH]nc(C5(c6ccccn6)CC5)c4c(=O)[nH]3)CC2)[C@@H]1N [Example 276, 6-((3S,4S)-4-amino-3-methyl-2-oxa-8-azaspiro[4.5]decan-8-yl)-3-(1-(pyridin-2-yl)cyclopropyl)-1,5-dihydro-4H-pyrazolo[3,4-d]pyrimidin-4-one]
≥ 7.70		N[C@@H]1c2ccccc2CC12CCN(c1nc3[nH]nc(C4(c5ccc[s+]5[O-])CC4)c3c(=O)[nH]1)CC2 (stereo partly drawn) [Example 242, 6-((S)-1-amino-1,3-dihydrospiro[indene-2,4′-piperidin]-1′-yl)-3-(1-(1-oxidothiophen-2-yl)cyclopropyl)-1,5-dihydro-4H-pyrazolo[3,4-d]pyrimidin-4-one]
7.22 to 7.70		CCCCCc1cc2c(s1)CCC=C2c1n[nH]c2nc(N3CCC4(CC3)Cc3ccccc3[C@H]4N)[nH]c(=O)c12 [Example 118, (S)-6-(1-amino-1,3-dihydrospiro[indene-2,4′-piperidin]-1′-yl)-3-(2-pentyl-6,7-dihydrobenzo[b]thiophen-4-yl)-1,5-dihydro-4H-pyrazolo[3,4-d]pyrimidin-4-one]
≥ 7.70		Cc1cccc(C2(c3n[nH]c4nc(N5CCC6(CC5)Cc5ccccc5[C@H]6N)[nH]c(=O)c34)CC2)n1 [Example 248, (S)-6-(1-amino-1,3-dihydrospiro[indene-2,4′-piperidin]-1′-yl)-3-(1-(6-methylpyridin-2-yl)cyclopropyl)-1,5-dihydro-4H-pyrazolo[3,4-d]pyrimidin-4-one]
7.22 to 7.70		C[C@@H]1OCC2(CCN(c3nc4[nH]nc(C5(c6cccnc6)CC5)c4c(=O)[nH]3)CC2)[C@@H]1N [Example 275, 6-((3S,4S)-4-amino-3-methyl-2-oxa-8-azaspiro[4.5]decan-8-yl)-3-(1-(pyridin-3-yl)cyclopropyl)-1,5-dihydro-4H-pyrazolo[3,4-d]pyrimidin-4-one]
≥ 7.70		N[C@@H]1c2ccccc2CC12CCN(c1nc3[nH]nc(C4(c5cccc6ccccc56)CC4)c3c(=O)[nH]1)CC2 [Example 77, (S)-6-(1-amino-1,3-dihydrospiro[indene-2,4′-piperidin]-1′-yl)-3-(1-(naphthalen-1-yl)cyclopropyl)-1,5-dihydro-4H-pyrazolo[3,4-d]pyrimidin-4-one]
≥ 7.70		Nc1cccc(C2(c3n[nH]c4nc(N5CCC6(CC5)Cc5ccccc5[C@H]6N)[nH]c(=O)c34)CC2)c1 [Example 43, (S)-6-(1-amino-1,3-dihydrospiro[indene-2,4′-piperidin]-1′-yl)-3-(1-(3-aminophenyl)cyclopropyl)-1,5-dihydro-4H-pyrazolo[3,4-d]pyrimidin-4-one]
7.22 to 7.70		C[C@@H]1OCC2(CCN(c3nc4[nH]nc(C5(c6ccncc6)CC5)c4c(=O)[nH]3)CC2)[C@@H]1N [Example 274, 6-((3S,4S)-4-amino-3-methyl-2-oxa-8-azaspiro[4.5]decan-8-yl)-3-(1-(pyridin-4-yl)cyclopropyl)-1,5-dihydro-4H-pyrazolo[3,4-d]pyrimidin-4-one]
